Experimental findings from patent US20260191998A1, “INDOLE PHTHALOCYANINE COMPOUND, PREPARATION METHOD THEREFOR, AND USE THEREOF IN TUMOR DIAGNOSIS IMAGING” (JIANGSU YAHONG MEDITECH CO., LTD., priority 2022, published 2026) are described below.

Where a name gives a salt, the structure may show the parent alone.

This data set is described as follows: UV-VIS absorption spectra (optical property test). It counts as physicochemical. The settings on record: 10 μM, DMSO solution; for Absorbance × 10^4: at maximum absorption peak. The procedure: The UV-VIS absorption spectra of the compounds (10 μM, DMSO solution) were detected using Shimadzu UV2600 spectrophotometer, and the maximum absorption peak and absorbance of each compound were obtained.

As to “2-((E)-2-((E)-2-bromo-3-(2-((E)-3,3-dimethyl-1-(6-oxo-6-phenoxyhexyl)indolin-2-ylidene)ethenyl)cyclohex-1-en-1-yl)ethenyl)-1,3,3-trimethyl-3H-indol-1-ium 2,2,2-trifluoroacetate [Example 58]”, the “Absorbance × 10^4” value was found to be 2.21.

As for “2-((E)-2-((E)-2-chloro-3-(2-((E)-3,3-dimethyl-1-(2-((5-oxo-5-phenoxypentyl)oxy)ethyl) indolin-2-ylidene)ethenyl)cyclohex-1-en-1-yl)ethenyl)-3,3-dimethyl-1-(2-((5-oxo-5-phenoxypentyl)oxy)ethyl)-3H-indol-1-ium [Example 37B]”, the Absorption peak is recorded as 801 nm and the “Absorbance × 10^4” value turned out to be 1.563.

For “2-((E)-2-((E)-2-chloro-3-(2-((E)-3,3-dimethyl-1-(6-oxo-6-(phenylamino)hexyl)indolin-2-ylidene)ethenyl)cyclohex-1-en-1-yl)ethenyl)-3,3-dimethyl-1-(6-oxo-6-(phenylamino) hexyl)-3H-indol-1-ium 2,2,2-trifluoroacetate [Example 27B]”, the Absorption peak is listed as 797 nm and the “Absorbance × 10^4” value is listed as 2.117.

As for “5-carboxy-2-((E)-2-((E)-2-chloro-3-(2-((E)-3,3-dimethyl-1-(2-(3-oxo-3-phenoxypropoxy)ethyl)indolin-2-ylidene)ethenyl)cyclohex-1-en-1-yl)ethenyl)-1-ethyl-3,3-dimethyl-3H-indol-1-ium 2,2,2-trifluoroacetate [Example 123]”, the “Absorbance × 10^4” value is given as 1.3.

Take “5-carboxy-2-((E)-2-((E)-2-chloro-3-(2-((E)-3,3-dimethyl-1-(6-oxo-6-phenoxyhexyl)indolin-2-ylidene)ethenyl)cyclohex-1-en-1-yl)ethenyl)-1,3,3-trimethyl-3H-indol-1-ium 2,2,2-trifluoroacetate [Example 120]”: the “Absorbance × 10^4” value is 1.73.

In the case of “5-carboxy-2-((E)-2-((E)-2-chloro-3-(2-((E)-3,3-dimethyl-1-(6-oxo-6-phenoxyhexyl)indolin-2-ylidene)ethenyl)cyclohex-1-en-1-yl)ethenyl)-1-ethyl-3,3-dimethyl-3H-indol-1-ium 2,2,2-trifluoroacetate [Example 118]”, the “Absorbance × 10^4” value worked out at 1.73.

Take `CC[N+]1=C(/C=C/C2=C(Cl)C(=C/C=C3/N(CCCCCC(=O)Oc4ccccc4)c4ccc5ccccc5c4C3(C)C)/CC2)C(C)(C)c2c1ccc1ccccc21` [Example 1A, 2-((E)-2-((E)-2-chloro-3-((E)-2-(1,1-dimethyl-3-(6-oxo-6-phenoxyhexyl)-1,3-dihydro-2H-benzo[e]indol-2-ylidene)ethenyl)cyclopent-1-en-1-yl)ethenyl)-3-ethyl-1,1-dimethyl-1H-benzo[e]indol-3-ium Chloride]: the Absorption peak came to 860 nm and the “Absorbance × 10^4” value is 2.82.

With `CC[N+]1=C(/C=C/C2=C(Cl)C(=C/C=C3/N(CCCCCC(=O)O)c4ccc5ccccc5c4C3(C)C)/CC2)C(C)(C)c2c1ccc1ccccc21` [Example 1B, 2-((E)-2-((E)-3-((E)-2-(3-(5-carboxypentyl)-1,1-dimethyl-1,3-dihydro-2H-benzo[e]indol-2-ylidene)ethenyl)-2-chlorocyclopent-1-en-1-yl)ethenyl)-3-ethyl-1,1-dimethyl-1H-benzo[e]indol-3-ium Chloride], the Absorption peak is recorded as 859.5 nm and the “Absorbance × 10^4” value was 2.03.

Consider `CC[N+]1=C(/C=C/C2=C(Cl)C(=C/C=C3/N(Cc4ccc(C(=O)Oc5ccccc5)cc4)c4ccc5ccccc5c4C3(C)C)/CCC2)C(C)(C)c2c1ccc1ccccc21` [Example 3], for which the Absorption peak was found to be 835 nm and the “Absorbance × 10^4” value stood at 1.88.

With `CC1(C)C(/C=C/C2=C(Cl)C(=C/C=C3/N(CCCCCC(=O)Oc4ccccc4)c4ccccc4C3(C)C)/CCC2)=[N+](CCCCCC(=O)Oc2ccccc2)c2ccccc21` [Example 5, 2-((E)-2-((E)-2-chloro-3-(2-((E)-3,3-dimethyl-1-(6-oxo-6-phenoxyhexyl)indolin-2-ylidene)ethenyl)cyclohex-1-en-1-yl)ethenyl)-3,3-dimethyl-1-(6-oxo-6-phenoxyhexyl)-3H-indol-1-ium Chloride], the Absorption peak is given as 796.5 nm and the “Absorbance × 10^4” value stood at 1.17.

For `CC1(C)C(/C=C/C2=C(Cl)C(=C/C=C3/N(CCCCCC(=O)Oc4ccccc4)c4ccccc4C3(C)C)/CCC2)=[N+](CCCCCC(=O)O)c2ccccc21` [Example 11], the Absorption peak is 796.5 nm and the “Absorbance × 10^4” value is 2.27.

Take `CC[N+]1=C(/C=C/C2=C(Oc3ccccc3)C(=C/C=C3/N(CCCCCC(=O)Oc4ccccc4)c4ccccc4C3(C)C)/CCC2)C(C)(C)c2ccccc21` [Example 12, 2-((E)-2-((E)-3-(2-((E)-3,3-dimethyl-1-(6-oxo-6-phenoxyhexyl)indolin-2-ylidene)ethenyl)-2-phenoxycyclohex-1-en-1-yl)ethenyl)-1-ethyl-3,3-dimethyl-3H-indol-1-ium Chloride]: the Absorption peak was determined as 781.5 nm and the “Absorbance × 10^4” value stood at 2.07.

`CCN1/C(=C/C=C2\CCCC(/C=C/C3=[N+](CC)c4ccccc4C3(C)C)=C2NCCCCCC(=O)O)C(C)(C)c2ccccc21` [Example 13, 2-((E)-2-((E)-2-((5-carboxypentyl)amino)-3-(2-((E)-1-ethyl-3,3-dimethylindolin-2-ylidene)ethenyl)cyclohex-1-en-1-yl)ethenyl)-1-ethyl-3,3-dimethyl-3H-indol-1-ium Formate]: the Absorption peak amounted to 632 nm and the “Absorbance × 10^4” value is on record as 0.68.

Regarding `CC1(C)C(/C=C/C2=C(Cl)C(=C/C=C3/N(CCCCCC(=O)Oc4ccccc4)c4ccccc4C3(C)C)/C[N+](C)(C)C2)=[N+](CCCCCC(=O)Oc2ccccc2)c2ccccc21` [Example 14, 2-((E)-2-((E)-4-chloro-5-(2-((E)-3,3-dimethyl-1-(6-oxo-6-phenoxyhexyl)indolin-2-ylidene)ethenyl)-1,1-dimethyl-1,2,5,6-tetrahydropyridin-1-ium-3-yl)ethenyl)-3,3-dimethyl-1-(6-oxo-6-phenoxyhexyl)-3H-indol-1-ium Dichloride], the Absorption peak is on record as 767.5 nm and the “Absorbance × 10^4” value came out at 1.71.

`CC[N+]1=C(/C=C/C2=C(Cl)C(=C/C=C3/N(CCCCCC(=O)Oc4ccccc4)c4ccccc4C3(C)C)/C[N+](C)(C)C2)C(C)(C)c2ccccc21` [Example 16, 2-((E)-2-((E)-4-chloro-5-(2-((E)-3,3-dimethyl-1-(6-oxo-6-phenoxyhexyl)indolin-2-ylidene)ethenyl)-1,1-dimethyl-1,2,5,6-tetrahydropyridin-1-ium-3-yl)ethenyl)-1-ethyl-3,3-dimethyl-3H-indol-1-ium Dichloride]: the Absorption peak worked out at 766 nm and the “Absorbance × 10^4” value is 1.71.

Consider `CC1(C)C(/C=C/C2=C(Cl)C(=C/C=C3/N(CCC(=O)O)c4ccccc4C3(C)C)/C[N+](C)(C)C2)=[N+](CCC(=O)O)c2ccccc21` [Example 17, 1-(2-carboxyethyl)-2-((E)-2-((E)-5-(2-((E)-1-(2-carboxyethyl)-3,3-dimethylindolin-2-ylidene)ethenyl)-4-chloro-1,1-dimethyl-1,2,5,6-tetrahydropyridin-1-ium-3-yl)ethenyl)-3,3-dimethyl-3H-indol-1-ium Ditrifluoroacetate], for which the Absorption peak is 766 nm and the “Absorbance × 10^4” value stood at 0.88.

Turning to `CCN1/C(=C/C=C2\C[N+](C)(C)CC(/C=C/C3=[N+](CC)c4ccccc4C3(C)C)=C2Cl)C(C)(C)c2ccccc21` [Example 18, 2-((E)-2-((E)-4-chloro-5-(2-((E)-1-ethyl-3,3-dimethylindolin-2-ylidene)ethenyl)-1,1-dimethyl-1,2,5,6-tetrahydropyridin-1-ium-3-yl)ethenyl)-1-ethyl-3,3-dimethyl-3H-indol-1-ium Ditrifluoroacetate], the Absorption peak came out at 764.5 nm and the “Absorbance × 10^4” value was 2.12.

Take `CC[N+]1=C(/C=C/C2=C(Oc3ccc(S(=O)(=O)O)cc3)C(=C/C=C3/N(CCCCCC(=O)Oc4ccccc4)c4ccccc4C3(C)C)/CCC2)C(C)(C)c2ccccc21` [Example 20, 2-((E)-2-((E)-3-(2-((E)-3,3-dimethyl-1-(6-oxo-6-phenoxyhexyl)indol-2-methylene)ethenyl)-2-(4-sulfophenoxy)cyclohex-1-en-1-yl)ethenyl)-1-ethyl-3,3-dimethyl-3H-indol-1-ium Formate]: the Absorption peak was 782 nm and the “Absorbance × 10^4” value is on record as 2.60.

Take `CC[N+]1=C(/C=C/C2=C(Cl)C(=C/C=C3/N(CCOCCC(=O)Oc4ccccc4)c4ccccc4C3(C)C)/CC2)C(C)(C)c2ccccc21` [Example 21, 2-((E)-2-((E)-2-chloro-3-(2-((E)-3,3-dimethyl-1-(2-(3-oxo-3-phenoxypropoxy)ethyl)indol-2-methylene)ethylidene)cyclopent-1-en-1-yl)ethenyl)-1-ethyl-3,3-dimethyl-3H-indol-1-ium Trifluoroacetate]: the Absorption peak was 821 nm and the “Absorbance × 10^4” value amounted to 2.466.

Regarding `CC[N+]1=C(/C=C/C2=C(Cl)C(=C/C=C3/N(CCCCCC(=O)Oc4ccccc4)c4ccccc4C3(C)C)/CC2)C(C)(C)c2cc(S(=O)(=O)O)ccc21` [Example 22, 2-((E)-2-((E)-2-chloro-3-(2-((E)-3,3-dimethyl-1-(6-oxo-6-phenoxyhexyl)indolin-2-ylidene)ethenyl)cyclopent-1-en-1-yl)ethenyl)-1-ethyl-3,3-dimethyl-5-sulfonyl-3H-indol-1-ium Chloride], the Absorption peak is listed as 827 nm and the “Absorbance × 10^4” value was 1.97.

`CC1(C)C(/C=C/C2=C(Cl)C(=C/C=C3/N(CCCCCC(=O)O)c4ccccc4C3(C)C)/C[N+](C)(C)C2)=[N+](CCCCCC(=O)O)c2ccccc21` [Example 25]: the Absorption peak is given as 767.5 nm and the “Absorbance × 10^4” value was found to be 2.265.
